Source: ChEMBL document CHEMBL3272010, “Antimycotic imidazoles. 3. Synthesis and antimycotic properties of 1-[2-(aryloxyalkyl)-2-phenylethyl]-1H-imidazoles” (1977)

Assays:
Assay type in all cases: functional
Aspergillus fumigatus = assay: Antifungal activity against Aspergillus fumigatus assessed as lowest dose required to total inhibition of fungal growth
Saprolegnia = assay: Antifungal activity against Saprolegnia species assessed as lowest dose required to total inhibition of fungal growth
Microsporum canis = assay: Antifungal activity against Microsporum canis assessed as lowest dose required to total inhibition of fungal growth
Phialophora verrucosa = assay: Antifungal activity against Phialophora verrucosa assessed as lowest dose required to total inhibition of fungal growth
[1] = test system: Erysipelothrix rhusiopathiae; assay: Antibaterial activity against Erysipelothrix insidiosa assessed as lowest dose required to total inhibition of bacterial growth
Streptococcus pyogenes = assay: Antibaterial activity against Streptococcus pyogenes assessed as lowest dose required to total inhibition of bacterial growth
Candida tropicalis = assay: Antifungal activity against Candida tropicalis assessed as lowest dose required to total inhibition of fungal growth
[2] = test system: Trichophyton mentagrophytes; assay: Antifungal activity against Trichophyton mentagrophytes assessed as lowest dose required to total inhibition of fungal growth
Trichophyton rubrum = assay: Antifungal activity against Trichophyton rubrum assessed as lowest dose required to total inhibition of fungal growth
[3] = test system: Staphylococcus haemolyticus; assay: Antibaterial activity against Staphylococcus haemolyticus assessed as lowest dose required to total inhibition of bacterial growth
Candida albicans = assay: Antifungal activity against Candida albicans assessed as lowest dose required to total inhibition of fungal growth
Mucor = assay: Antifungal activity against Mucor species assessed as lowest dose required to total inhibition of fungal growth
Cryptococcus neoformans = assay: Antifungal activity against Cryptococcus neoformans assessed as lowest dose required to total inhibition of fungal growth
Sporothrix schenckii = assay: Antifungal activity against Sporothrix schenckii assessed as lowest dose required to total inhibition of fungal growth

Row | Structure (SMILES) | GI (Aspergillus fumigatus) [µg/mL] | GI (Saprolegnia) [µg/mL] | GI (Microsporum canis) [µg/mL] | GI (Phialophora verrucosa) [µg/mL] | GI [1] [µg/mL] | GI (Streptococcus pyogenes) [µg/mL] | GI (Candida tropicalis) [µg/mL] | GI [2] [µg/mL] | GI (Trichophyton rubrum) [µg/mL] | GI [3] [µg/mL] | GI (Candida albicans) [µg/mL] | GI (Mucor) [µg/mL] | GI (Cryptococcus neoformans) [µg/mL] | GI (Sporothrix schenckii) [µg/mL]
1 | Fc1ccc(OCCCC(Cn2ccnc2)c2ccc(Cl)cc2Cl)cc1.O=C(O)C(=O)O (configuration not stated) | 100 | 10 | <1 | 100 | 1 | 1 | >100 | <1 | <1 | 10 | >100 | >100 | <1 | <1
2 | Clc1ccc(C(COc2ccc(Cl)cc2Cl)Cn2ccnc2)cc1.O=[N+]([O-])O (configuration not stated) | 100 | >100 | 10 | 100 | 1 | <1 | >100 | <1 | <1 | 10 | 10 | >100 | <1 | 10
3 | Clc1ccc(C(CCCOc2ccccc2)Cn2ccnc2)c(Cl)c1.O=C(O)C(=O)O (configuration not stated) | 10 | 10 | 10 | 10 | <1 | <1 | >100 | <1 | <1 | 10 | >100 | >100 | <1 | <1
4 | COc1ccc(OCCCC(Cn2ccnc2)c2ccc(Cl)cc2Cl)cc1.O=C(O)C(=O)O (configuration not stated) | 10 | <1 | 10 | 10 | <1 | <1 | >100 | <1 | <1 | 100 | 10 | 100 | <1 | <1
5 | Clc1ccc(OCC(Cn2ccnc2)c2ccc(Br)cc2)cc1.O=[N+]([O-])O (configuration not stated) | 100 | >100 | 10 | 100 | <1 | <1 | >100 | <1 | <1 | 10 | 100 | >100 | 10 | 10
6 | Clc1ccc(OCC(Cn2ccnc2)c2ccc(Cl)cc2Cl)c(Cl)c1.O=[N+]([O-])O (configuration not stated) | >100 | >100 | <1 | 100 | <1 | <1 | >100 | <1 | <1 | 1 | >100 | >100 | <1 | <1
7 | Clc1ccc(OCC(Cn2ccnc2)c2ccc(Cl)cc2)cc1.O=[N+]([O-])O (configuration not stated) | 100 | 100 | <1 | 100 | 1 | <1 | >100 | <1 | <1 | 10 | >100 | 10 | <1 | 10
8 | Clc1ccc(OCC(Cn2ccnc2)c2ccc(Cl)cc2Cl)cc1.O=[N+]([O-])O (configuration not stated) | 10 | 100 | 10 | 10 | <1 | <1 | >100 | <1 | <1 | 10 | 10 | 100 | <1 | 10
9 | COc1ccc(OCCC(Cn2ccnc2)c2ccc(Cl)cc2Cl)cc1.O=[N+]([O-])O (configuration not stated) | 100 | <1 | 10 | 10 | <1 | <1 | >100 | <1 | <1 | 10 | 100 | 100 | <1 | 10
10 | Clc1ccc(C(COc2ccccc2Cl)Cn2ccnc2)cc1.O=[N+]([O-])O (configuration not stated) | >100 | >100 | 100 | >100 | 1 | 1 | >100 | <1 | 10 | 10 | 100 | 100 | <1 | 10
11 | Clc1ccc(C(COc2ccc(Br)cc2)Cn2ccnc2)c(Cl)c1.O=[N+]([O-])O (configuration not stated) | 100 | 100 | <1 | 100 | <1 | <1 | >100 | <1 | <1 | 10 | 100 | 100 | <1 | 100
12 | Clc1ccc(C(CCCOc2ccccc2Br)Cn2ccnc2)c(Cl)c1.O=C(O)C(=O)O (configuration not stated) | 100 | 100 | <1 | 100 | <1 | <1 | >100 | <1 | <1 | 10 | 100 | >100 | <1 | 10
13 | Clc1ccc(C(CCOc2ccc(Br)cc2)Cn2ccnc2)c(Cl)c1.O=[N+]([O-])O (configuration not stated) | 100 | <10 | <10 | <10 | <10 | <10 | 100 | <10 | <10 | 100 | <10 | 100 | <10 | <10
